Experimental data: US11293023B2, “Tunable endogenous protein degradation” (Dana-Farber Cancer Institute, Inc., priority 2015, dated 2022)

Columns and labels:
Type in all cases: cell-based
[1] = target: T1, FKBP* (FKBP12 F36V), HA-tagged (Homo sapiens, UniProt P62942, F37V); test: Immunoblot of FKBP* degradation in 293FT cells (CRBN-WT or CRBN−/−)
T1 construct: expressed in transfected cells; host or cells: 293FT cells (CRBN-WT or CRBN-/-)
Experimental: 293FT cells (CRBN-WT or CRBN−/−) expressing either HA-tagged FKBP12WT or FKBP* were treated with indicated concentrations of dFKBP7 for 4 hours.
Isogenic 293FT cells (CRBN-WT or CRBN−/−) expressing either FKBP12WT or FKBP* were treated with 100 nM of either dFKBP7 or dFKBP13 for 4 hours.
Isogenic 293FT cells (CRBN-WT or CRBN−/−) expressing HA-tagged FKBP* were treated with the indicated dose of dFKBP13 for 4 hours.
(§1) 293FT cells (CRBN-WT) expressing FKBP* were pretreated with 1 uM Carfilzomib (proteasome inhibitor), 0.5 uM MLN4924 (neddylation inhibitor), and 10 uM Lenalidomide (CRBN binding ligand) for two hours prior to a 4 hour treatment with dFKBP13.
The dTAG is predicated on the selectivity of FKBP* specific ligands over endogenous, wild type FKBP. In 293T cells expressing wild type FKBP12 or FKBP*, dFKBP7 induces targeted degradation only in FKBP* expressing cells. […] 293FT cells (CRBN-WT or CRBN−/−) expressing either HA-tagged FKBP12WT or FKBP* were treated with indicated concentrations of dFKBP7 for 4 hours.
In 293T cells expressing wild type FKBP12 or FKBP*, treatment with dFKBP7 and dFKBP13 induces targeted degradation only in FKBP* expressing cells. Isogenic 293FT cells (CRBN-WT or CRBN−/−) were engineered to expressed either FKBP12WT or FKBP*. Cells were treated with 100 nM of either dFKBP7 or dFKBP13 for 4 hours before lysates were prepared for western immunoblot analysis.
In an effort to define the optimal concentration of dFKB13 heterobifunctional compound to induce degradation of FKBP*, degradation was measured upon treatment with increasing concentrations of dFKBP13. Isogenic 293FT cells (CRBN-WT or CRBN−/−) were engineered to expressed HA-tagged FKBP*. Cells were treated with the indicated dose of dFKBP13 for 4 hours before lysates were prepared for western immunoblot analysis.
as §1, with “were engineered to express FKBP*. Cells” for “expressing FKBP*”, “dFKBP13. Lysates were prepared and western immunoblot analysis performed.” for “dFKBP13.”

[2] = system: FKBP*-KRASG12V; test: Immunoblot of FKBP*-KRASG12V (dTAG-KRAS) degradation in NIH3T3 cells
Experimental: (§2) FIG. 11 is an immunoblot of NIH3T3 cells expressing KRASG12V allele fused to FKBP* in the N-terminus or C-terminus. Cells were treated with 500 nM dFKBP7 for the indicated time. Cells were harvested and immunoblotted to measure degradation of FKBP*-KRASG12V and downstream surrogates of KRAS signaling (e.g. pMEK and pAKT).
(§3) FIG. 12 is an immunoblot of NIH3T3 cells expressing FKBP* fused to the N-terminus of KRASG12V treated with 1 uM of the indicated dFKBP heterobifunctional compounds for 24 hours. Cells were harvested and immunoblotted to measure degradation of FKBP*-KRASG12V and downstream surrogates of KRAS signaling (e.g. pMEK and pAKT).
as §3, with “FIG. 13” for “FIG. 12”, “with” for “with 1 uM of”, “indicated concentrations of dFKBP13” for “indicated dFKBP heterobifunctional compounds”
(§4) FIG. 14 is an immunoblot of NIH3T3 cells expressing FKBP* fused to the N-terminus of KRASG12V treated with 1 uM dFKBP13 for the indicated time. Cells were harvested and immunoblotted to measure degradation of FKBP*-KRASG12V and downstream surrogates of KRAS signaling (e.g. pMEK and pAKT).
FIG. 15 is an immunoblot of NIH3T3 cells expressing dTAG-KRASG12V pretreated with 1 uM Carfilzomib (proteasome inhibitor), 0.5 uM MLN4924 (neddylation inhibitor), and 10 uM Lenalidomide (CRBN binding ligand) for two hours prior to a 4 hour treatment with dFKBP13.
(§5) Cells were treated with 500 nM dFKBP7 for the indicated time. Cells were harvested and immunoblotted to measure degradation of FKBP*-KRAS and downstream surrogates of KRAS signaling (e.g. pMEK and pAKT).
(§6) In an effort to identify the best performing dFKBP molecule, dTAG-KRAS degradation was profiled across a series of dFKBP molecules. Western blotting of NIH3T3 cells expressing dTAG-KRASG12V were treated with 1 μM of the indicated dFKBP heterobifunctional compounds for 24 hours. Cells were harvested and immunoblotted to measure degradation of FKBP*-KRAS and downstream surrogates of KRAS signaling (e.g. pMEK and pAKT).
(§7) Western blotting of NIH3T3 cells expressing FKBP* fused to the N-terminus of KRAS treated with the indicated concentrations of dFKBP13 for 24 hours. Cells were harvested and immunoblotted to measure degradation of FKBP*-KRAS and downstream surrogates of KRAS signaling (e.g. pMEK and pAKT).
(§8) To evaluate the kinetic control of targeted degradation of dTAG-KRAS, dFKBP13 was administered by increased duration. Western blotting of NIH3T3 cells expressing FKBP* fused to the N-terminus of KRAS treated with 1 μM dFKBP13 for the indicated time. Cells were harvested and immunoblotted to measure degradation of FKBP*-KRAS and downstream surrogates of KRAS signaling (e.g. pMEK and pAKT).
NIH3T3 cells (CRBN-WT) were engineered to express dTAG-KRASG12V. Cells were pretreated with 1 uM Carfilzomib (proteasome inhibitor), 0.5 uM MLN4924 (neddylation inhibitor), and 10 uM Lenalidomide (CRBN binding ligand) for two hours prior to a 4 hour treatment with dFKBP13. Lysates were prepared and western immunoblot analysis performed. […] Pre-treatment with the NAE1 inhibitor MLN4924 rescued dTAG-KRASG12V expression establishing dependence on CRL activity, as expected for cullin-based ubiquitin ligases that require neddylation for processive E3 ligase activity. Pre-treatment with excess Lenalidomide abolished dFKBP13-dependent dTAG-KRASG12V degradation, confirming the requirement of CRBN engagement for degradation.

[3] = system: KRAS signaling (pMEK and pAKT); test: Immunoblot of downstream surrogates of KRAS signaling in NIH3T3 cells expressing dTAG-KRAS; conditions: NIH3T3 FKBP*-KRASG12V, 1 uM, 24 hours
Experimental: as §2, §3
as §4, with “13” for “14”, “the indicated concentrations of” for “1 uM”, “24 hours.” for “the indicated time.”
as §4, §5, §6, §7, §8
(§9) The dFKBP13 heterobifunctional compound potently degrades dTAG-KRAS mutant alleles. NIH3T3 cells were engineered to express KRAS alleles either WT or mutant forms of amino acid glycine 12 (G12C, G12D, and G12V). Western blotting of NIH3T3 cells expressing dTAG fused to the N-terminus of KRAS alleles were treated with 1 uM of dFKBP13 for 24 hours. Cells were harvested and immunoblotted to measure degradation of dTAG-KRAS and downstream surrogates of KRAS signaling (e.g. pMEK and pAKT).
as §9, with “express” for “express KRAS alleles”, “KRAS alleles (G13D, Q61L,” for “forms of amino acid glycine 12 (G12C, G12D,”, “Q61R).” for “G12V).”

[4] = 10 uM Lenalidomide, two hours prior to a 4 hour treatment with dFKBP13
[5] = 1 uM Carfilzomib, two hours prior to a 4 hour treatment with dFKBP13
[6] = 0.5 uM MLN4924, two hours prior to a 4 hour treatment with dFKBP13

T1 sequence (P62942 2-108 F37V limits assumed): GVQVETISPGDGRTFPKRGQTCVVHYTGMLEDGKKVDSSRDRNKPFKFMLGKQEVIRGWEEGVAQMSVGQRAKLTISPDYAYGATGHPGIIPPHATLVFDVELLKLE

Nc1cccc2c1CN(C1CCC(=O)NC1=O)C2=O (centres unmarked) [Lenalidomide, reference compound]
effect of pretreatment on dFKBP13-induced degradation of HA-tagged FKBP* [1, 4]: abolished | effect of pretreatment on dFKBP13-induced degradation of dTAG-KRASG12V [2, 4]: abolished

CC(C)C[C@H](NC(=O)[C@H](CCc1ccccc1)NC(=O)CN1CCOCC1)C(=O)N[C@@H](Cc1ccccc1)C(=O)N[C@@H](CC(C)C)C(=O)[C@@]1(C)CO1 [Carfilzomib, reference compound]
effect of pretreatment on dFKBP13-induced degradation of HA-tagged FKBP* [1, 5]: rescued | effect of pretreatment on dFKBP13-induced degradation of dTAG-KRASG12V [2, 5]: rescued

CC[C@H](C(=O)N1CCCC[C@H]1C(=O)O[C@H](CCc1ccc(OC)c(OC)c1)c1cccc(OCC(=O)NCCCCCCCCNC(=O)COc2cccc3c2C(=O)N(C2CCC(=O)NC2=O)C3=O)c1)c1cc(OC)c(OC)c(OC)c1 (some centres unmarked) [dFKBP9]
downstream signaling (pMEK and pAKT) [3]: inhibition of downstream signaling | degradation of FKBP*-KRASG12V ([2]; NIH3T3, 1 uM, 24 hours): potent degradation

NS(=O)(=O)OC[C@@H]1C[C@@H](n2ccc3c(N[C@H]4CCc5ccccc54)ncnc32)C[C@@H]1O [MLN4924, reference compound]
effect of pretreatment on dFKBP13-induced degradation of HA-tagged FKBP* [1, 6]: rescued | effect of pretreatment on dFKBP13-induced degradation of dTAG-KRASG12V [2, 6]: rescued
